Where a name gives a salt, the structure may show the parent alone.
Tested on: behaviors of compound-treated mice
Assay: Neuropharmacological Assay (SmartCube)
Format: in vivo
Settings: for minimal effective dose: Mus musculus, ip, 0.25 h, dose having 50% or more total activity in SmartCube, i.p., read-out: MED (minimal effective dose); for AD: ADHD (probability that activity matches class) / AG: analgesic (probability that activity matches class) / AX: anxiolytic (probability that activity matches class) / CE: cognitive enhancer (probability that activity matches class) / DP: anti-depressant (probability that activity matches class) / MS: mood stabilizer (probability that activity matches class) / PS: anti-psychotic (probability that activity matches class) / SD: sedative hypnotic (probability that activity matches class) / UN: uncharacterized CNS activity (probability that activity matches class): i.p. 15 min before behavioral test, most efficacious dose(s) of 3 doses
How it was run: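 Mice dosed i.p. 15 min before testing, with compound in N-methyl-2-pyrrolidone/PEG/propylene glycol, were video-recorded and algorithmically compared with reference-drug behavioral signatures. This gave class-match probabilities (antidepressant, anxiolytic, etc.) at the most efficacious of 3 doses. MED was defined as the dose with ≥50% total activity, usually tested across 0.3–30 mpk.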

NC[C@@H]1OCCc2c(-c3ccncn3)cccc21 (single isomer, unassigned) [Compound 74, hydrochloride salt]
minimal effective dose: > 30 mg/kg
AD: ADHD (probability that activity matches class): + (LOQ ≤ + <5%)
AG: analgesic (probability that activity matches class): + (LOQ ≤ + <5%)
AX: anxiolytic (probability that activity matches class): + (LOQ ≤ + <5%)
CE: cognitive enhancer (probability that activity matches class): + (LOQ ≤ + <5%)
DP: anti-depressant (probability that activity matches class): ++ (5% ≤ ++ <25%)
MS: mood stabilizer (probability that activity matches class): + (LOQ ≤ + <5%)
PS: anti-psychotic (probability that activity matches class): + (LOQ ≤ + <5%)
SD: sedative hypnotic (probability that activity matches class): + (LOQ ≤ + <5%)
UN: uncharacterized CNS activity (probability that activity matches class): + (LOQ ≤ + <5%)

NC[C@H]1OCCc2c(-c3ccncn3)cccc21 (single isomer, unassigned) [Compound 75, hydrochloride salt]
minimal effective dose: 3 to 10 mg/kg
AD: ADHD (probability that activity matches class): + (LOQ ≤ + <5%)
AG: analgesic (probability that activity matches class): + (LOQ ≤ + <5%)
AX: anxiolytic (probability that activity matches class): ++ (5% ≤ ++ <25%)
CE: cognitive enhancer (probability that activity matches class): + (LOQ ≤ + <5%)
DP: anti-depressant (probability that activity matches class): ++++ (50% ≤ ++++)
MS: mood stabilizer (probability that activity matches class): + (LOQ ≤ + <5%)
PS: anti-psychotic (probability that activity matches class): + (LOQ ≤ + <5%)
SD: sedative hypnotic (probability that activity matches class): + (LOQ ≤ + <5%)
UN: uncharacterized CNS activity (probability that activity matches class): ++ (5% ≤ ++ <25%)

CNC[C@@H]1OCCc2c(-c3ccnnc3)cccc21 (single isomer, unassigned) [Compound 76, hydrochloride salt]
minimal effective dose: 3 to 10 mg/kg
AD: ADHD (probability that activity matches class): + (LOQ ≤ + <5%)
AG: analgesic (probability that activity matches class): ++ (5% ≤ ++ <25%)
AX: anxiolytic (probability that activity matches class): ++ (5% ≤ ++ <25%)
CE: cognitive enhancer (probability that activity matches class): + (LOQ ≤ + <5%)
DP: anti-depressant (probability that activity matches class): + (LOQ ≤ + <5%)
MS: mood stabilizer (probability that activity matches class): + (LOQ ≤ + <5%)
PS: anti-psychotic (probability that activity matches class): + (LOQ ≤ + <5%)
SD: sedative hypnotic (probability that activity matches class): + (LOQ ≤ + <5%)
UN: uncharacterized CNS activity (probability that activity matches class): + (LOQ ≤ + <5%)

CNC[C@H]1OCCc2c(-c3ccnnc3)cccc21 (single isomer, unassigned) [Compound 77, hydrochloride salt]
minimal effective dose: ≤ 3 mg/kg
AD: ADHD (probability that activity matches class): + (LOQ ≤ + <5%)
AG: analgesic (probability that activity matches class): + (LOQ ≤ + <5%)
AX: anxiolytic (probability that activity matches class): ++ (5% ≤ ++ <25%)
CE: cognitive enhancer (probability that activity matches class): + (LOQ ≤ + <5%)
DP: anti-depressant (probability that activity matches class): ++++ (50% ≤ ++++)
MS: mood stabilizer (probability that activity matches class): + (LOQ ≤ + <5%)
PS: anti-psychotic (probability that activity matches class): + (LOQ ≤ + <5%)
SD: sedative hypnotic (probability that activity matches class): + (LOQ ≤ + <5%)
UN: uncharacterized CNS activity (probability that activity matches class): + (LOQ ≤ + <5%)

NC[C@@H]1OCCc2c(-c3ccnnc3)cccc21 (single isomer, unassigned) [Compound 78, hydrochloride salt]
minimal effective dose: 3 to 10 mg/kg
AD: ADHD (probability that activity matches class): + (LOQ ≤ + <5%)
AG: analgesic (probability that activity matches class): + (LOQ ≤ + <5%)
AX: anxiolytic (probability that activity matches class): ++ (5% ≤ ++ <25%)
CE: cognitive enhancer (probability that activity matches class): + (LOQ ≤ + <5%)
DP: anti-depressant (probability that activity matches class): + (LOQ ≤ + <5%)
MS: mood stabilizer (probability that activity matches class): + (LOQ ≤ + <5%)
PS: anti-psychotic (probability that activity matches class): + (LOQ ≤ + <5%)
SD: sedative hypnotic (probability that activity matches class): + (LOQ ≤ + <5%)
UN: uncharacterized CNS activity (probability that activity matches class): + (LOQ ≤ + <5%)

NC[C@H]1OCCc2c(-c3ccnnc3)cccc21 (single isomer, unassigned) [Compound 79, hydrochloride salt]
minimal effective dose: 3 to 10 mg/kg
AD: ADHD (probability that activity matches class): + (LOQ ≤ + <5%)
AG: analgesic (probability that activity matches class): + (LOQ ≤ + <5%)
AX: anxiolytic (probability that activity matches class): + (LOQ ≤ + <5%)
CE: cognitive enhancer (probability that activity matches class): + (LOQ ≤ + <5%)
DP: anti-depressant (probability that activity matches class): ++ (5% ≤ ++ <25%)
MS: mood stabilizer (probability that activity matches class): + (LOQ ≤ + <5%)
PS: anti-psychotic (probability that activity matches class): + (LOQ ≤ + <5%)
SD: sedative hypnotic (probability that activity matches class): + (LOQ ≤ + <5%)
UN: uncharacterized CNS activity (probability that activity matches class): + (LOQ ≤ + <5%)

CNC[C@@H]1OCCc2c(-c3cnccn3)cccc21 (single isomer, unassigned) [Compound 80]
minimal effective dose: 3 to 10 mg/kg
AD: ADHD (probability that activity matches class): + (LOQ ≤ + <5%)
AG: analgesic (probability that activity matches class): + (LOQ ≤ + <5%)
AX: anxiolytic (probability that activity matches class): ++ (5% ≤ ++ <25%)
CE: cognitive enhancer (probability that activity matches class): + (LOQ ≤ + <5%)
DP: anti-depressant (probability that activity matches class): + (LOQ ≤ + <5%)
MS: mood stabilizer (probability that activity matches class): + (LOQ ≤ + <5%)
PS: anti-psychotic (probability that activity matches class): + (LOQ ≤ + <5%)
SD: sedative hypnotic (probability that activity matches class): + (LOQ ≤ + <5%)
UN: uncharacterized CNS activity (probability that activity matches class): + (LOQ ≤ + <5%)

NC[C@@H]1OCCc2c(-c3cnccn3)cccc21 (single isomer, unassigned) [Compound 82, hydrochloride salt]
minimal effective dose: 10 to 30 mg/kg
AD: ADHD (probability that activity matches class): + (LOQ ≤ + <5%)
AG: analgesic (probability that activity matches class): + (LOQ ≤ + <5%)
AX: anxiolytic (probability that activity matches class): ++ (5% ≤ ++ <25%)
CE: cognitive enhancer (probability that activity matches class): + (LOQ ≤ + <5%)
DP: anti-depressant (probability that activity matches class): + (LOQ ≤ + <5%)
MS: mood stabilizer (probability that activity matches class): + (LOQ ≤ + <5%)
PS: anti-psychotic (probability that activity matches class): + (LOQ ≤ + <5%)
SD: sedative hypnotic (probability that activity matches class): + (LOQ ≤ + <5%)
UN: uncharacterized CNS activity (probability that activity matches class): + (LOQ ≤ + <5%)

NC[C@H]1OCCc2c(-c3cnccn3)cccc21 (single isomer, unassigned) [Compound 83, hydrochloride salt]
minimal effective dose: 3 to 10 mg/kg
AD: ADHD (probability that activity matches class): ++ (5% ≤ ++ <25%)
AG: analgesic (probability that activity matches class): + (LOQ ≤ + <5%)
AX: anxiolytic (probability that activity matches class): ++ (5% ≤ ++ <25%)
CE: cognitive enhancer (probability that activity matches class): + (LOQ ≤ + <5%)
DP: anti-depressant (probability that activity matches class): ++++ (50% ≤ ++++)
MS: mood stabilizer (probability that activity matches class): + (LOQ ≤ + <5%)
PS: anti-psychotic (probability that activity matches class): + (LOQ ≤ + <5%)
SD: sedative hypnotic (probability that activity matches class): + (LOQ ≤ + <5%)
UN: uncharacterized CNS activity (probability that activity matches class): + (LOQ ≤ + <5%)

CNC[C@@H]1OCCc2c(-c3cnoc3)cccc21 (single isomer, unassigned) [Compound 84, hydrochloride salt]
minimal effective dose: 3 to 10 mg/kg
AD: ADHD (probability that activity matches class): ++ (5% ≤ ++ <25%)
AG: analgesic (probability that activity matches class): + (LOQ ≤ + <5%)
AX: anxiolytic (probability that activity matches class): ++ (5% ≤ ++ <25%)
CE: cognitive enhancer (probability that activity matches class): ++ (5% ≤ ++ <25%)
DP: anti-depressant (probability that activity matches class): ++ (5% ≤ ++ <25%)
MS: mood stabilizer (probability that activity matches class): + (LOQ ≤ + <5%)
PS: anti-psychotic (probability that activity matches class): + (LOQ ≤ + <5%)
SD: sedative hypnotic (probability that activity matches class): + (LOQ ≤ + <5%)
UN: uncharacterized CNS activity (probability that activity matches class): ++ (5% ≤ ++ <25%)

CNC[C@H]1OCCc2c(-c3cnoc3)cccc21 (single isomer, unassigned) [Compound 85, hydrochloride salt]
minimal effective dose: ≤ 3 mg/kg
AD: ADHD (probability that activity matches class): ++ (5% ≤ ++ <25%)
AG: analgesic (probability that activity matches class): + (LOQ ≤ + <5%)
AX: anxiolytic (probability that activity matches class): ++ (5% ≤ ++ <25%)
CE: cognitive enhancer (probability that activity matches class): + (LOQ ≤ + <5%)
DP: anti-depressant (probability that activity matches class): ++++ (50% ≤ ++++)
MS: mood stabilizer (probability that activity matches class): + (LOQ ≤ + <5%)
PS: anti-psychotic (probability that activity matches class): + (LOQ ≤ + <5%)
SD: sedative hypnotic (probability that activity matches class): + (LOQ ≤ + <5%)
UN: uncharacterized CNS activity (probability that activity matches class): ++ (5% ≤ ++ <25%)

NC[C@@H]1OCCc2c(-c3cnoc3)cccc21 (single isomer, unassigned) [Compound 86, hydrochloride salt]
minimal effective dose: 3 to 10 mg/kg
AD: ADHD (probability that activity matches class): + (LOQ ≤ + <5%)
AG: analgesic (probability that activity matches class): + (LOQ ≤ + <5%)
AX: anxiolytic (probability that activity matches class): ++ (5% ≤ ++ <25%)
CE: cognitive enhancer (probability that activity matches class): ++ (5% ≤ ++ <25%)
DP: anti-depressant (probability that activity matches class): ++ (5% ≤ ++ <25%)
MS: mood stabilizer (probability that activity matches class): + (LOQ ≤ + <5%)
PS: anti-psychotic (probability that activity matches class): ++ (5% ≤ ++ <25%)
SD: sedative hypnotic (probability that activity matches class): + (LOQ ≤ + <5%)
UN: uncharacterized CNS activity (probability that activity matches class): +++ (25% ≤ +++ <50%)

NC[C@H]1OCCc2c(-c3cnoc3)cccc21 (single isomer, unassigned) [Compound 87, hydrochloride salt]
minimal effective dose: ≤ 3 mg/kg
AD: ADHD (probability that activity matches class): ++ (5% ≤ ++ <25%)
AG: analgesic (probability that activity matches class): + (LOQ ≤ + <5%)
AX: anxiolytic (probability that activity matches class): ++++ (50% ≤ ++++)
CE: cognitive enhancer (probability that activity matches class): + (LOQ ≤ + <5%)
DP: anti-depressant (probability that activity matches class): ++++ (50% ≤ ++++)
MS: mood stabilizer (probability that activity matches class): + (LOQ ≤ + <5%)
PS: anti-psychotic (probability that activity matches class): + (LOQ ≤ + <5%)
SD: sedative hypnotic (probability that activity matches class): + (LOQ ≤ + <5%)
UN: uncharacterized CNS activity (probability that activity matches class): + (LOQ ≤ + <5%)

— US10780074B2, “Compounds and uses thereof” (Sunovion Pharmaceuticals Inc., priority 2017, dated 2020)
